Assays:
[1] = target: T1, human NADK (ATP-NAD+ kinase), recombinant, C-terminal 6x-histidine tag (Homo sapiens, UniProt O95544); test: Affinity of human NADK for NAD+ compared with pigeon, duck and cat NADK; assay type: biochemical; details: human NADK relative to pigeon
T1 construct: 6x-histidine (C); made in house; host or cells: E. coli BL21(DE3)
T1 sequence (O95544 1-446): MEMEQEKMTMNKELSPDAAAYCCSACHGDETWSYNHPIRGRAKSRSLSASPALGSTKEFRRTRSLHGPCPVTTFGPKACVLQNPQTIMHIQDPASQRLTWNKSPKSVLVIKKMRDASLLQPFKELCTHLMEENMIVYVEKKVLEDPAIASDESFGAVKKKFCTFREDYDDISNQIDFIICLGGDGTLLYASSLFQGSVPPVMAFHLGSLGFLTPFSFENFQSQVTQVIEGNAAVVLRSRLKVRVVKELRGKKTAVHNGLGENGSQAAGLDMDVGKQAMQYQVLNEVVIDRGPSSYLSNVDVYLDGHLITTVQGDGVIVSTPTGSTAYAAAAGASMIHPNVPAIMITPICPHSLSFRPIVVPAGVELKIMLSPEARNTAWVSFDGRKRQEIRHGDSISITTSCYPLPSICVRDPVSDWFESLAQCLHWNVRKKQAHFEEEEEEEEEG
Protocol: (§1) Recombinantly-expressed NADKs were explored for their reversible activities. It was hypothesized that the reversibility of the pigeon enzyme would enable compensation for the high picolinic acid […] (PC) activity present in pigeon livers, which inhibits NAD^+ biosynthesis from dietary tryptophan. […] It was determined that human NADK has an affinity for NAD^+ that is about 600 times higher than the pigeon, duck and cat isoforms. Without wishing to be bound by theory, NAD^+ serves as a product inhibitor for the reverse human NADK activity, which accounts for the observed irreversible behavior. While each of the NADKs explored were “reversible,” the reverse activity of the human enzyme is impeded via product inhibition. […]
(§2) Referring now to FIGS. 3A-3B, initial rate kinetic experiments were performed with pigeon, duck, cat, and human NADK enzymes in both the forward and reverse directions. […] In FIG. 3B, the production of ATP was detected in a coupled reaction with firefly luciferase where ATP was converted to light, the relative luminescence (RLU) was monitored, and a standard curve was used to calculate the ATP concentration.

NADK = test: Initial rate kinetic experiments with pigeon, duck, cat and human NADK enzymes, forward and reverse directions; assay type: biochemical; details: reverse direction (NADP^+ + ADP to NAD^+ + ATP); recombinant enzyme
Protocol: as §1, §2

In the case of `NC(=O)c1ccc[n+]([C@@H]2O[C@H](COP(=O)([O-])OP(=O)(O)OC[C@H]3O[C@@H](n4cnc5c(N)ncnc54)[C@H](O)[C@@H]3O)[C@@H](O)[C@H]2O)c1` [NAD], the “affinity for NAD^+, times higher than the pigeon, duck and cat isoforms” value [1] is reported as “about 600 times”.

B1: human NADK: cloned human ATP-NAD^+ kinase with C-terminal 6×-histidine tag (protein, UniProt O95544 1-446, looked up)
NAD kinase: MEMEQEKMTMNKELSPDAAAYCCSACHGDETWSYNHPIRGRAKSRSLSASPALGSTKEFRRTRSLHGPCPVTTFGPKACVLQNPQTIMHIQDPASQRLTWNKSPKSVLVIKKMRDASLLQPFKELCTHLMEENMIVYVEKKVLEDPAIASDESFGAVKKKFCTFREDYDDISNQIDFIICLGGDGTLLYASSLFQGSVPPVMAFHLGSLGFLTPFSFENFQSQVTQVIEGNAAVVLRSRLKVRVVKELRGKKTAVHNGLGENGSQAAGLDMDVGKQAMQYQVLNEVVIDRGPSSYLSNVDVYLDGHLITTVQGDGVIVSTPTGSTAYAAAAGASMIHPNVPAIMITPICPHSLSFRPIVVPAGVELKIMLSPEARNTAWVSFDGRKRQEIRHGDSISITTSCYPLPSICVRDPVSDWFESLAQCLHWNVRKKQAHFEEEEEEEEEG
For B1, the “reverse NADK activity” value (NADK) was “no measurable activity in the reverse direction”.
